Reference: patent publication US12655116B2, “Substituted isophthalic acid diamides” (Bayer Aktiengesellschaft, priority 2020, dated 2026)

Experiments:
ABUTH [1] = assay: Pre-emergence herbicidal action against ABUTH; format: in vivo, Abutilon theophrasti; details: Abutilon theophrasti, 504 h
Procedure, shortened: (§1)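 Herbicidal effect was assessed 3 weeks after treatment by visual comparison with untreated controls, 100% denoting dead plants. Aqueous WP or EC preparations had been applied at 600 to 800 l/ha with 0.2% wetting agent to the soil covering freshly sown seeds.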

AMARE [2] = assay: Pre-emergence herbicidal action against AMARE; format: in vivo, Amaranthus retroflexus; details: Amaranthus retroflexus, 504 h, 100% = plants have died, 0% = like control plants
Procedure, shortened: as §1

ECHCG [3] = assay: Pre-emergence herbicidal action against ECHCG; format: in vivo, Echinochloa crus-galli; details: Echinochloa crus-galli, 504 h, 320 g/ha
Procedure, shortened: as §1

HORMU = assay: Pre-emergence herbicidal action against HORMU; format: in vivo, Hordeum murinum; details: Hordeum murinum, 504 h; 320 g/ha, pre-emergence
Procedure, shortened: as §1

MATIN = assay: Pre-emergence herbicidal action against MATIN; format: in vivo, Matricaria inodora; details: Tripleurospermum inodorum, 504 h
Procedure, shortened: as §1

SETVI = assay: Pre-emergence herbicidal action against SETVI; format: in vivo, Setaria viridis; details: Setaria viridis, 504 h
Procedure, shortened: as §1

STEME [4] = assay: Pre-emergence herbicidal action against STEME; format: in vivo, Stellaria media; details: Stellaria media, 504 h
Procedure, shortened: as §1

VIOTR = assay: Pre-emergence herbicidal action against VIOTR; format: in vivo, Viola tricolor; details: Viola tricolor, 504 h, dosage 320 g/ha
Procedure, shortened: as §1

DIGSA [5] = assay: Pre-emergence herbicidal action against DIGSA; format: in vivo, Digitaria sanguinalis; details: Digitaria sanguinalis, 504 h
Procedure, shortened: as §1

ABUTH [6] = assay: Post-emergence herbicidal action against ABUTH; format: in vivo, Abutilon theophrasti; details: Abutilon theophrasti, 504 h, visual assessment about 3 weeks after treatment vs untreated controls
Procedure, shortened: (§2)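 Herbicidal effect was scored visually in percent after about 3 weeks in the greenhouse. Plants had been raised in sandy loam and treated post-emergence at the one-leaf stage with formulated compound at 600 to 800 l/ha water plus 0.2% wetting agent.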

AMARE [7] = assay: Post-emergence herbicidal action against AMARE; format: in vivo, Amaranthus retroflexus; details: Amaranthus retroflexus, 504 h, 80 g/ha, visual assessment about 3 weeks after treatment, 100% = plants have died, 0% = like control plants
Procedure, shortened: as §2

AVEFA = assay: Post-emergence herbicidal action against AVEFA; format: in vivo, Avena fatua; details: Avena fatua, 504 h, visual assessment about 3 weeks after treatment, 100% = plants have died, 0% = like control plants
Procedure, shortened: as §2

ECHCG [8] = assay: Post-emergence herbicidal action against ECHCG; format: in vivo, Echinochloa crus-galli; details: Echinochloa crus-galli, 504 h
Procedure, shortened: as §2

POLCO = assay: Post-emergence herbicidal action against POLCO; format: in vivo, Polygonum convolvulus; details: Fallopia convolvulus, 504 h, dosage 80 g/ha
Procedure, shortened: as §2

STEME [9] = assay: Post-emergence herbicidal action against STEME; format: in vivo, Stellaria media; details: Stellaria media, 504 h
Procedure, shortened: as §2

DIGSA [10] = assay: Post-emergence herbicidal action against DIGSA; format: in vivo, Digitaria sanguinalis; details: Digitaria sanguinalis, 504 h
Procedure, shortened: as §2

In the case of `CNC(=O)c1c(C(F)(F)F)ccc(C(=O)Nc2nnc(C)o2)c1SC` [Example 6-58], the pest or weed control at 80 g/ha (ABUTH [1]; 80 g/ha, scored visually after 3 weeks vs untreated controls (100% = plants have died, 0% = like control plants)) is reported as 100%, the pest or weed control at 320 g/ha (ABUTH [1]; Dosage: 320 g/ha, scored visually after 3 weeks, 100% = plants have died, 0% = like control plants) is reported as 100% and the pest or weed control at 80 g/ha (AMARE [2]; 80 g/ha, scored visually after 3 weeks vs untreated controls) is reported as 100%. The pest or weed control at 320 g/ha (AMARE [2]; 320 g/ha, scored visually after 3 weeks) was 100%, the pest or weed control at 320 g/ha (ECHCG [3]) was 100% and the pest or weed control at 320 g/ha (HORMU) was 90%. For the same compound, the pest or weed control at 80 g/ha (MATIN; dosage 80 g/ha) was 80%, the pest or weed control at 320 g/ha (MATIN; dosage 320 g/ha) was 100% and the pest or weed control at 80 g/ha (SETVI; dosage 80 g/ha) was 100%. It also gave a pest or weed control at 320 g/ha (SETVI; dosage 320 g/ha) of 100%, a pest or weed control at 80 g/ha (STEME [4]; dosage 80 g/ha) of 90% and a pest or weed control at 320 g/ha (STEME [4]; dosage 320 g/ha) of 90%. The pest or weed control at 320 g/ha (VIOTR) was 90%, the pest or weed control at 80 g/ha (DIGSA [5]; dosage 80 g/ha) was 100% and the pest or weed control at 320 g/ha (DIGSA [5]; dosage 320 g/ha) was 100%. It also gave a pest or weed control at 20 g/ha (ABUTH [6]; dosage 20 g/ha) of 80%, a pest or weed control at 80 g/ha (ABUTH [6]; dosage 80 g/ha) of 80% and a pest or weed control at 80 g/ha (AMARE [7]) of 90%. The pest or weed control at 20 g/ha (AVEFA; 20 g/ha) was 80%, the pest or weed control at 80 g/ha (AVEFA; 80 g/ha) was 90% and the pest or weed control at 20 g/ha (ECHCG [8]; dosage 20 g/ha) was 90%. It also gave a pest or weed control at 80 g/ha (ECHCG [8]; dosage 80 g/ha) of 90%, a pest or weed control at 80 g/ha (POLCO) of 100% and a pest or weed control at 20 g/ha (STEME [9]; 20 g/ha) of 80%. The pest or weed control at 80 g/ha (STEME [9]; 80 g/ha) was 80%, the pest or weed control at 20 g/ha (DIGSA [10]; 20 g/ha) was 80% and the pest or weed control at 80 g/ha (DIGSA [10]; 80 g/ha) was 90%.
